These results are taken from patent US20060141022A1, “Soft capsule preparation” (priority 2002, published 2006).

Each structure is given as a SMILES string.

Data set [1] in a line: Stability test of NIK-333 in sealed bottle (peroxide value). It is filed as physicochemical. The following applies: 25° C., sealed bottle in aluminium bag. The protocol: NIK-333 was filled in a sealed bottle and the bottle was put into an aluminium bag. This sample was stored at 25° C., and after 0, 1, and 3 months, the peroxide values were measured.
For the next data set, the system named is hepatoma. Conditions: one-year oral administration, patients after therapeutic treatment of hepatoma; cited from earlier work.

In the case of `CC(C)=CCC/C(C)=C/CC/C(C)=C/C=C/C(C)=C/C(=O)O` [NIK-333, (2E,4E,6E,10E )-3,7,11,15-Tetramethyl-2,4,6,10,14-hexadecapentaenoic acid], the Peroxide value was found to be 0.4 meq/kg in data set [1] (storage period 0 month), 6.2 meq/kg in data set [1] (storage period 1 month) and 14.4 meq/kg in data set [1] (storage period 3 months). In the data set with hepatoma, the recurrence of hepatoma result is “suppress recurrence of hepatoma”. In addition, the safety entry with hepatoma is recorded as “high safety”. Moreover, the “survival rate of the patients” value with hepatoma is on record as “increased survival rate of the patients”.
